From US20180155757A1, “IDENTIFICATION OF BACTERIA THAT ARE RESISTANT TO CARBAPENEMS BY MEMBRANE IMPERVIOUSNESS” (BIOMÉRIEUX, priority 2015, published 2018)
Where two headings read alike, the source gives them in different places.

Experiments:
Test in all cases: Etest MIC of indicator carbapenems on MH II agar without/with PMBN
Type in all cases: cell-based
E. cloacae 9402034 = conditions: E. cloacae 9402034
Method: (§1) The determinations of antibiotic MIC were carried out on solid culture media with the Etest® method. To do this, Etest® strips (bioMérieux, France) were used: • Etest® Imipenem IM 32, and • Etest® Ertapenem ETP 32, and also solid culture media, differing from one another by virtue of their non-inhibitory concentrations of PMBN.
(§2) These solid culture media are prepared in Petri dishes (0=145 mm; V=50 ml) on a base of MH II Agar (Becton Dickinson®, United States), more or less supplemented with PMBN. The PMBN concentrations range from 0 up to concentrations equivalent to one fifth of the MIC of PMBN (⅕ MICPMBN).
(§3) Using a swab and the Retro C80™ rota-plater (bioMérieux, France), the culture media were inoculated with the bacteria, originating from an inoculum of 0.5 McFarland, prepared in 0.85% NaCl solution from colonies subcultured the day before on MH II agar.
(§4) The various Etest® strips are then deposited on the surface of the culture media. After 16 to 20 hours of incubation at 35° C., the MICS were read.
(§5) To do this, imipenem and ertapenem were used as indicator carbapenems. Non-inhibitory concentrations of PMBN, equivalent to concentrations of one tenth ( 1/10), one eighth (⅛) and one fifth (⅕) of the MIC of PMBN, were applied.
(§6) In the light of the MICPMBN values previously identified, very predominantly much higher than 300 μg/ml, the following standard concentrations were retained and applied to the bacterial strains to be tested: 50, 100, 150, 200 and 300 μg/ml.
(§7) By way of indicator carbapenems according to the invention, in addition to imipenem (IM) and ertapenem (ETP), meropenem (MP) was also tested. Like the other two antibiotics, meropenem was used in the form of Etest® strips (Etest® Meropenem MP 32 from the company bioMérieux, France).
(§8) The methods used to prepare the new culture media and to carry out the antibiotic-sensitivity tests are identical to those described above.

K. pneumoniae 1002015 = system: K. pneumoniae 1002015
Method: as §1, §2, §3, §4, §5, §6, §7, §8

E. aerogenes 1204048 = conditions: in µg/mL
Method: as §1, §2, §3, §4, §5, §6, §7, §8

[1] = system: Enterobacter aerogenes EA 27 (porin−); conditions: Klebsiella aerogenes
Method: as §1, §2, §3, §4, §7, §8

[2] = system: E. aerogenes 1204050 (membrane impermeability); conditions: in µg/mL
Method: as §1, §2, §3, §4, §7, §8

[3] = system: K. pneumoniae 1204035 (membrane impermeability); conditions: in µg/mL
Method: as §1, §2, §3, §4, §7, §8

E. coli SAB 108 (porin−) = conditions: Escherichia coli
Method: as §1, §2, §3, §4, §7, §8

[4] = system: K. pneumoniae KP 55 (porin−); conditions: Klebsiella pneumoniae
Method: as §1, §2, §3, §4, §7, §8

[5] = system: K. pneumoniae 1103183 (NDM producer)
Method: as §1, §2, §3, §4, §7, §8

Compound: C[C@@H](O)[C@H]1C(=O)N2C(C(=O)O)=C(S[C@@H]3CN[C@H](C(=O)Nc4cccc(C(=O)O)c4)C3)[C@H](C)[C@H]12 [ETP, ertapenem]
- MIC (E. cloacae 9402034; [PMBN] MIC/8): 16 µg/mL
- MIC (E. cloacae 9402034; [PMBN] MIC/10): 16 µg/mL
- MIC (K. pneumoniae 1002015; K. pneumoniae 1002015, [PMBN] 0, Table 3): 32 µg/mL
- MIC (K. pneumoniae 1002015; K. pneumoniae 1002015, [PMBN] MIC/5): 1 µg/mL
- MIC (K. pneumoniae 1002015; K. pneumoniae 1002015, [PMBN] MIC/8): 2 µg/mL
- MIC (K. pneumoniae 1002015; K. pneumoniae 1002015, [PMBN] MIC/10): 4 µg/mL
- MIC (K. pneumoniae 1002015; Klebsiella pneumoniae, 1002015, K. pneumoniae 1002015 (porin−), [PMBN] 0, Table 4, read-out: MIC): 4 µg/mL
- MIC (K. pneumoniae 1002015; Klebsiella pneumoniae, 1002015, K. pneumoniae 1002015 (porin−), [PMBN] 150 μg/ml, Table 4, read-out: MIC): 0.5 µg/mL
- MIC (K. pneumoniae 1002015; Klebsiella pneumoniae, 1002015, K. pneumoniae 1002015 (porin−), [PMBN] 200 μg/ml, Table 4, read-out: MIC): 0.38 µg/mL
- MIC (E. aerogenes 1204048; E. aerogenes 1204048 (membrane impermeability), [PMBN] 0, Table 4a): >32
- MIC (E. aerogenes 1204048; E. aerogenes 1204048 (membrane impermeability), [PMBN] 100, Table 4a): 16
- MIC (E. aerogenes 1204048; E. aerogenes 1204048 (membrane impermeability), [PMBN] 200, Table 4a): 16
- MIC (E. aerogenes 1204048; E. aerogenes 1204048 (membrane impermeability), [PMBN] 300, Table 4a): 8
- MIC (E. aerogenes 1204048; E. aerogenes 1204048, [PMBN] 0, Table 3): 32
- MIC (E. aerogenes 1204048; E. aerogenes 1204048, [PMBN] MIC/5): 2
- MIC (E. aerogenes 1204048; E. aerogenes 1204048, [PMBN] MIC/8): 2
- MIC (E. aerogenes 1204048; E. aerogenes 1204048, [PMBN] MIC/10): 4
- MIC [1]: 0.125 µg/mL
- MIC ([1]; E. aerogenes EA 27 (porin−), [PMBN] 0, Table 4, read-out: MIC): > 32 µg/mL
- MIC ([1]; E. aerogenes EA 27 (porin−), [PMBN] 50 μg/ml, read-out: MIC): 4 µg/mL
- MIC ([1]; E. aerogenes EA 27 (porin−), [PMBN] 100 μg/ml, read-out: MIC): 1.5 µg/mL
- MIC ([1]; E. aerogenes EA 27 (porin−), [PMBN] 150 μg/ml, read-out: MIC): 0.75 µg/mL
- MIC ([1]; E. aerogenes EA 27 (porin−), [PMBN] 200 μg/ml, read-out: MIC): 0.19 µg/mL
- MIC ([1]; EA 27 (porin−), [PMBN] 0, Table 2, read-out: MIC): 64 µg/mL
- MIC ([1]; EA 27 (porin−), [PMBN] MIC/8, read-out: MIC): 0.25 µg/mL
- MIC ([1]; EA 27 (porin−), [PMBN] MIC/10, read-out: MIC): 16 µg/mL
- MIC ([2]; [PMBN] 0, Table 4a): >32
- MIC ([2]; [PMBN] 100, Table 4a): >32
- MIC ([2]; [PMBN] 200, Table 4a): >32
- MIC ([2]; [PMBN] 300, Table 4a): >32
- MIC ([3]; [PMBN] 0, Table 4a): >32
- MIC ([3]; [PMBN] 100, Table 4a): 8
- MIC ([3]; [PMBN] 200, Table 4a): 8-12
- MIC ([3]; [PMBN] 300, Table 4a): 6
- MIC (E. coli SAB 108 (porin−); [PMBN] 0): 4 µg/mL
- MIC (E. coli SAB 108 (porin−); [PMBN] 50 μg/ml): 0.25 µg/mL
- MIC (E. coli SAB 108 (porin−); [PMBN] 100 μg/ml): 0.19 µg/mL
- MIC (E. coli SAB 108 (porin−); [PMBN] 150 μg/ml): 0.19 µg/mL
- MIC (E. coli SAB 108 (porin−); [PMBN] 200 μg/ml): 0.19 µg/mL
- MIC ([4]; [PMBN] 0): 0.38 µg/mL
- MIC ([4]; [PMBN] 50 μg/ml): 0.25 µg/mL
- MIC ([4]; [PMBN] 100 μg/ml): 0.19 µg/mL
- MIC ([4]; [PMBN] 150 μg/ml): 0.125 µg/mL
- MIC ([4]; [PMBN] 200 μg/ml): 0.064 µg/mL
- MIC ([5]; [PMBN] 0, Table 4a): > 32 µg/mL
- MIC ([5]; [PMBN] 100, Table 4a): > 32 µg/mL
- MIC ([5]; [PMBN] 200, Table 4a): 32 µg/mL
- MIC ([5]; [PMBN] 300, Table 4a): 32 µg/mL
